Where a name gives a salt, the structure may show the parent alone.
Assays:
Type in all cases: functional, cell-based
IMR-32 = test: Cytotoxicity against Homo sapiens (human) IMR32 cells by SRB assay
DU-145 = test: Cytotoxicity against Homo sapiens (human) DU145 cells by SRB assay
COLO 205 = test: Cytotoxicity against Homo sapiens (human) COLO205 cells by SRB assay
PC-3 = test: Cytotoxicity against Homo sapiens (human) PC3 cells by SRB assay
MCF7 = test: Cytotoxicity against Homo sapiens (human) MCF7 cells by SRB assay
HEp-2 = test: Cytotoxicity against Homo sapiens (human) Hep2 cells by SRB assay

Compound | IC50 (IMR-32) | IC50 (DU-145) | IC50 (COLO 205) | IC50 (PC-3) | IC50 (MCF7) | IC50 (HEp-2)
COC(=O)[C@@H](NC(=O)/C=C/C=C/c1ccc2c(c1)OCO2)C(C)C | > 50 µM | 44 µM | > 50 µM | 49 µM | 51 µM | > 50 µM
COC(=O)[C@H](NC(=O)/C=C/C=C/c1ccc2c(c1)OCO2)C(C)C | > 50 µM | > 50 µM | 51 µM | > 50 µM | > 50 µM | > 50 µM
COC(=O)[C@H](CC(C)C)NC(=O)/C=C/C=C/c1ccc2c(c1)OCO2 | > 50 µM | > 50 µM | 55 µM | > 50 µM | 48 µM | 43 µM
CC[C@H](C)[C@H](NC(=O)/C=C/C=C/c1ccc2c(c1)OCO2)C(=O)OC | > 50 µM | > 50 µM | > 50 µM | > 50 µM | 48 µM | > 50 µM
COC(=O)[C@H](CO)NC(=O)/C=C/C=C/c1ccc2c(c1)OCO2 | > 50 µM | > 50 µM | 36 µM | > 50 µM | > 50 µM | > 50 µM
COC(=O)C[C@H](NC(=O)/C=C/C=C/c1ccc2c(c1)OCO2)C(=O)OC | > 50 µM | 46 µM | > 50 µM | > 50 µM | > 50 µM | > 50 µM
COC(=O)[C@H](Cc1cnc[nH]1)NC(=O)/C=C/C=C/c1ccc2c(c1)OCO2 | > 50 µM | 21 µM | > 50 µM | > 50 µM | > 50 µM | > 50 µM
COC(=O)CNC(=O)/C=C/C=C/c1ccc2c(c1)OCO2 | 50 µM | 49 µM | > 50 µM | 33 µM | 44 µM | > 50 µM
COC(=O)[C@H](C)NC(=O)/C=C/C=C/c1ccc2c(c1)OCO2 | > 50 µM | 51 µM | > 50 µM | > 50 µM | > 50 µM | > 50 µM
COc1cccc2c1C(=O)c1c(O)c3c(c(O)c1C2=O)C[C@@](O)(C(=O)CO)C[C@@H]3O[C@H]1C[C@H](N)[C@H](O)[C@H](C)O1 [DOXORUBICIN HYDROCHLORIDE] | 0.02 µM |  |  |  | 0.8 µM | 
O=c1[nH]cc(F)c(=O)[nH]1 [FLUOROURACIL] |  |  | 2.9 µM |  | 2.9 µM | 2 µM
CO[C@@]12[C@H](COC(N)=O)C3=C(C(=O)C(C)=C(N)C3=O)N1C[C@@H]1N[C@@H]12 [MITOMYCIN] |  | 1.8 µM |  | 1.4 µM |  | 
O=C(/C=C/C=C/c1ccc2c(c1)OCO2)N1CCCCC1 [PIPERINE] | 89 µM | > 50 µM | 46 µM | > 50 µM | 99 µM | 70 µM
